# ChEMBL document CHEMBL5131491, “N6-modification of 7-Deazapurine nucleoside analogues as Anti-Trypanosoma cruzi and anti-Leishmania agents: Structure-activity relationship exploration and In vivo evaluation” (Eur J Med Chem, 2022)
# Key:
# Leishmania infantum = test: Antileishmanial activity against intracellular Leishmania infantum MHOM/MA(BE)/67 amastigotes infected in Swiss mouse peritoneal macrophages assessed as parasite growth inhibition incubated for 5 days by giemsa staining based microscopic analysis; assay type: functional, organism-based; conditions: MHOM/MA(BE)/67, Macrophage, 120 h
# [1] = Cytotoxicity against human MRC5 fibroblast cells assessed as reduction in cell viability measured after 3 days by fluorometry; assay type: toxicity, cell-based; conditions: time 3 day
# Trypanosoma cruzi [2] = test: Antitrypanosomal activity against intracellular Trypanosoma cruzi Tulahuen amastigotes expressing CL2 beta-galactosidase in human MRC5 cells assessed as parasite growth inhibition using chlorophenol red beta-D-galactopyranoside as substrate treated for 7 days by spectrophotometry; assay type: functional, organism-based; conditions: MRC5, 168 h
# [3] = Selectivity index, ratio of CC50 for human MRC-5 cells to EC50 for antitrypanosomal activity against intracellular Trypanosoma cruzi Tulahuen amastigotes expressing CL2 beta-galactosidase in human MRC5 cells; assay type: toxicity, cell-based; conditions: read-out: Selectivity Index
# [4] = Cytotoxicity against Swiss mouse peritoneal macrophages assessed as reduction in cell viability measured after 5 days by microscopic analysis; assay type: toxicity, cell-based, Macrophage; conditions: time 5 day
# [5] = Selectivity index, ratio of CC50 for Swiss mouse peritoneal macrophages to EC50 for antileishmanial activity against intracellular Leishmania infantum MHOM/MA(BE)/67 amastigotes infected in Swiss mouse peritoneal macrophages; assay type: toxicity, cell-based; conditions: read-out: Selectivity Index
# Trypanosoma cruzi [6] = test: Antitrypanosomal activity against Trypanosoma cruzi Y strain infected in acute CD Swiss Webster mouse model assessed as reduction in parasitemia at 100 mg/kg, po qd for 5 consecutive days by light microscopy relative to control; assay type: functional; parameters: scale not given: the % may be the effect or the level left; conditions: time 5 day
# [7] = Toxicity in acute CD Swiss Webster mouse model infected with Trypanosoma cruzi Y strain assessed as animal survival at 100 mg/kg, po qd for 5 consecutive days measured daily for upto 30 days post-treatment; assay type: organism-based; conditions: in vivo, 720 h, time < 30 day
SMILES,EC50 (Leishmania infantum) [µM],CC50 at 72 h [1] [µM],EC50 (Trypanosoma cruzi [2]) [µM],selectivity ratio [3],CC50 at 120 h [4] [µM],selectivity ratio [5],Activity (Trypanosoma cruzi [6]) [%],Survival [7]
CCCCCCCCCCCCCCCCOP(=O)([O-])OCC[N+](C)(C)C [MILTEFOSINE],8.3,–,–,–,–,–,–,–
OC[C@H]1O[C@@H](n2ccc3c(NCc4ccccc4)ncnc32)[C@H](O)[C@@H]1O,1.09,> 64,7.48,> 8.56,5,4.59,–,–
Nc1ccnc2c1ccn2[C@@H]1O[C@H](CO)[C@@H](O)[C@H]1O,38.9,17.9,2.27,> 47.1,> 64,> 1.65,–,–
OC[C@H]1O[C@@H](n2ccc3c(N4CCOCC4)ncnc32)[C@H](O)[C@@H]1O,> 64,> 64,> 64,–,> 64,–,–,–
CN(C)c1ncnc2c1ccn2[C@@H]1O[C@H](CO)[C@@H](O)[C@H]1O,> 64,7.06,1.65,4.28,64,–,–,–
O=C(Cn1ccnc1[N+](=O)[O-])NCc1ccccc1 [BENZNIDAZOLE],–,–,–,–,–,–,100,Non-Toxic
OC[C@H]1O[C@@H](n2ccc3c(N4CCCC4)ncnc32)[C@H](O)[C@@H]1O,> 64,> 64,> 64,–,64,–,–,–
CCCNc1ncnc2c1ccn2[C@@H]1O[C@H](CO)[C@@H](O)[C@H]1O,> 64,> 64,14.2,> 4.51,> 64,–,–,–
C=CCNc1ncnc2c1ccn2[C@@H]1O[C@H](CO)[C@@H](O)[C@H]1O,6.01,8.9,2.58,3.45,8,1.33,–,–
OC[C@H]1O[C@@H](n2ccc3c(NC4CCCCC4)ncnc32)[C@H](O)[C@@H]1O,19.3,44.6,7.82,5.7,> 64,> 3.32,–,–
Nc1ncnc2c1ccn2[C@@H]1O[C@H](CO)C[C@H]1O,> 64,> 64,> 64,–,> 64,–,–,–
Nc1ncc2ccn([C@@H]3O[C@H](CO)[C@@H](O)[C@H]3O)c2n1,> 64,> 64,33.8,> 1.89,> 64,–,–,–
OC[C@H]1O[C@@H](n2ccc3c(NC4CC4)ncnc32)[C@H](O)[C@@H]1O,0.36,> 64,2.28,> 28.1,1.25,3.47,–,–
Nc1ncnc2c1ccn2[C@@H]1O[C@H](CO)[C@@H](O)[C@H]1O [TUBERCIDIN],0.13,2.23,0.34,6.6,0.13,1,–,–
OC[C@H]1O[C@@H](n2ccc3c(NC4CCCC4)ncnc32)[C@H](O)[C@@H]1O,35,> 64,14.5,> 4.41,> 64,> 1.83,–,–
OC[C@H]1O[C@@H](n2ccc3c(N4CCC4)ncnc32)[C@H](O)[C@@H]1O,> 64,> 64,6.67,> 9.6,64,–,–,–
OC[C@H]1O[C@@H](n2ccc3c(Nc4ccccc4)ncnc32)[C@H](O)[C@@H]1O,1.37,> 64,7.89,> 8.11,2,1.46,–,–
CC1CCN(c2ncnc3c2ccn3[C@@H]2O[C@H](CO)[C@@H](O)[C@H]2O)CC1,2.6,> 64,7.84,> 8.15,8,3.08,–,–
CNc1ncnc2c1ccn2[C@H]1O[C@@H](CO)[C@H](O)[C@@H]1O,> 64,> 64,32.3,> 1.98,> 64,–,–,–
CCNc1ncnc2c1ccn2[C@@H]1O[C@H](CO)[C@@H](O)[C@H]1O,0.51,> 64,5.08,> 12.6,> 64,> 125,–,–
OC[C@H]1O[C@@H](n2ccc3c(N4CCCCC4)ncnc32)[C@H](O)[C@@H]1O,1.11,> 64,7.74,> 8.27,2,1.8,–,–
CCN(CC)c1ncnc2c1ccn2[C@@H]1O[C@H](CO)[C@@H](O)[C@H]1O,> 64,> 64,> 64,–,64,–,–,–
CC(C)Nc1ncnc2c1ccn2[C@@H]1O[C@H](CO)[C@@H](O)[C@H]1O,> 64,> 64,> 64,–,> 64,–,–,–
Nc1nc(N)c2ccn([C@@H]3O[C@H](CO)[C@@H](O)[C@H]3O)c2n1,21.4,> 64,1.36,6.6,> 64,> 2.99,–,–
Nc1cnc2c(ccn2[C@@H]2O[C@H](CO)[C@@H](O)[C@H]2O)c1,> 64,> 64,> 64,7.9,> 64,–,–,–
CCCCNc1ncnc2c1ccn2[C@@H]1O[C@H](CO)[C@@H](O)[C@H]1O,3.84,> 64,4.13,> 15.5,> 64,> 16.7,–,–
